Experimental data: patent EP0159396B1, “Carboxyalkyl peptide derivatives” (G.D. Searle & Co., priority 1984, dated 1985)

Test system: rat model of inflammatory arthritis
Assay: rat model of inflammatory arthritis induced by Type II collagen (Trentham et al.)
Type: in vivo
Conditions: arthritic rats' paws, test compound 100 mg/kg i.p. twice daily for 21 days, prednisolone 0.625 mg/kg b.i.d.
Procedure: The therapeutic effectiveness is assessed in the rat model of inflammatory arthritis described by Trentham et al. (1977). In this model, the arthritis, induced by an intradermal injection of Type II collagen, generally develops in both hind paws and the progression and severity of the lesion are monitored by physical measurements of the malleolar width and ankle extensibility.
The compound of example II in the present specification was administered by intraperitoneal injections at 100 mg/kg twice daily for 21 days commencing seven days after the injection of the disease.
Drugs (Example 1 or prednisolone) and vehicle were administered to groups of 10 rats each. Physical measurements on the rat paws were made weekly for four weeks and consisted of (a) the distance between the medial and lateral malleolus (malleolar width) and (b) the ankle extension which was measured by applying a standard force to the rat paw and measuring the angle formed between the flexor surface of the foot and tibia. Evidence of a therapeutic effect was denoted by a significant reduction in malleolar width and […] a significant increase in ankle extension. Both measurements were carried out on apparatus designed for the purpose. Area-under-the-curve data from these time course experiments was examined by non-parametric statistical analysis. The prednisolone standard was given at a dose of 0.625 mg/kg b.i.d. Prednisolone was chosen as a standard since steroids are known to be effective both clinically in Rheumatoid Arthritis and in animal models of arthritis.

[1] = experiment number 1, area-under-the-curve of weekly measurements over four weeks

Structure (SMILES) | MALLEOLAR WIDTH, […] FROM CONTROL [1] | ANGLE EXTENSION, […] FROM CONTROL (experiment number 1) | ANGLE EXTENSION, […] FROM CONTROL (experiment number 2) | MALLEOLAR WIDTH, […] FROM CONTROL (experiment number 2) | ANGLE EXTENSION, […] FROM CONTROL (experiment number 3) | MALLEOLAR WIDTH, […] FROM CONTROL (experiment number 3) | ANGLE EXTENSION, […] FROM CONTROL, MEAN (mean of experiments 1-3) | MALLEOLAR WIDTH, […] FROM CONTROL, MEAN (mean of experiments 1-3) | MALLEOLAR WIDTH, PERCENTAGE CHANGE FROM CONTROL [1] | ANGLE EXTENSION, PERCENTAGE CHANGE FROM CONTROL (experiment number 1) | ANGLE EXTENSION, PERCENTAGE CHANGE FROM CONTROL (experiment number 2) | MALLEOLAR WIDTH, PERCENTAGE CHANGE FROM CONTROL (experiment number 2) | ANGLE EXTENSION, PERCENTAGE CHANGE FROM CONTROL (experiment number 3) | MALLEOLAR WIDTH, PERCENTAGE CHANGE FROM CONTROL (experiment number 3) | ANGLE EXTENSION, PERCENTAGE CHANGE FROM CONTROL, MEAN (mean of experiments 1-3) | MALLEOLAR WIDTH, PERCENTAGE CHANGE FROM CONTROL, MEAN (mean of experiments 1-3)
C[C@]12C=CC(=O)C=C1CC[C@@H]1[C@@H]2[C@@H](O)C[C@@]2(C)[C@H]1CC[C@]2(O)C(=O)CO [Prednisolone] | 98% | 100% | 96% | 96% | 95% | 97% | 97% | 97% | – | – | – | – | – | – | – | –
CNC(=O)[C@H](Cc1ccc(OC)cc1)NC(=O)[C@H](CC(C)C)N[C@H](CCNC(=O)OCc1ccccc1)C(=O)O [Example 1, N-[3-N-(Benzyloxycarbonyl)amino-I-(R)-carboxypropyl]-L-leucyl-O-methyl-L-tyrosine N-Methylamide] | – | – | – | – | – | – | – | – | 65% | 66% | 39% | 43% | 39% | 41% | 48% | 50%
